This note sets out measurements from patent US5968907A (priority 1997, dated 1999).

A value given as a limit tells only on which side of the number the result lay.

The target of one test is heat-labile enterotoxin from E. coli (Escherichia coli, UniProt P0CK94).
Sequence of heat-labile enterotoxin from E. coli (P0CK94 whole entry, looked up): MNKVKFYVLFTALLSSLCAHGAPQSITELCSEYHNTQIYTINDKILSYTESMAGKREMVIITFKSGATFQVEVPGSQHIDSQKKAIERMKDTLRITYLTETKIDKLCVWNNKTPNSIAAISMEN
Experiment: not given
Type of test: binding. Conditions: at the concentration employed in the assay.
For the compound `OC[C@H]1O[C@@H](SC2CCCCC2O)[C@H](O)[C@@H](O)[C@H]1O` (stereo partly drawn) [Example A2, 2-Hydroxycyclohex-1-yl 1-Thio-β-D-galactopyranoside], the “inhibition of binding of heat-labile enterotoxin to ganglioside GD1b” value is reported as below 20%.

`CC1(C)CCC(S[C@@H]2O[C@H](CO)[C@H](O)[C@H](O)[C@H]2O)CC1O` (stereo partly drawn) [Example A11, 4,4Dimethyl-3-hydroxycyclohex-1-yl 1-Thio-β-D-galactopyranoside]: the “inhibition of binding of heat-labile enterotoxin to ganglioside GD1b” value is “at least 20%”.

The target in a further test is cholera toxin (Vibrio cholerae serotype O1, UniProt P01556). Put plainly: biochemical. Conditions: read-out: inhibition of binding of cholera toxin to ganglioside GD1b.
Sequence of cholera toxin (P01556 22-124 limits assumed): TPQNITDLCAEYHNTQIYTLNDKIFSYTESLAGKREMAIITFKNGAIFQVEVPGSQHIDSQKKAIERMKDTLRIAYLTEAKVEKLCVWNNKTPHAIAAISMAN
As to `CC(O)CC(S[C@@H]1O[C@H](CO)[C@H](O)[C@H](O)[C@H]1O)c1ccccc1` (stereo partly drawn) [Example A3, 3-Hydroxy-1-phenylbut-1-yl 1-Thio-β-D-galactopyranoside], the inhibition – broadly, how much of the control response was suppressed – at 1000 µg/mL is below 20%.

For the compound `CC1(C)CC(O)CC1S[C@@H]1O[C@H](CO)[C@H](O)[C@H](O)[C@H]1O` (stereo partly drawn) [Example A6, 2,2-Dimethyl-4-hydroxycyclopent-1-yl 1-Thio-β-D-galactopyranoside], the inhibition at 1000 µg/mL is below 20%.

On to `CC(O)CC(C)S[C@@H]1O[C@H](CO)[C@H](O)[C@H](O)[C@H]1O` (stereo partly drawn) [Example A8, 4Hydroxypent-2-yl 1-Thio-β-D-galactopyranoside], for which the inhibition at 1000 µg/mL is below 20%.

For the compound `CC(N)CC(S[C@@H]1O[C@H](CO)[C@H](O)[C@H](O)[C@H]1O)c1ccccc1` (stereo partly drawn) [Example B3, 3-Amino-1-phenylbut-1-yl 1-Thio-β-D-galactopyranoside], the inhibition at 1000 µg/mL was below 20%.

Regarding `CC1(C)CC(N)CC1S[C@@H]1O[C@H](CO)[C@H](O)[C@H](O)[C@H]1O` (stereo partly drawn) [Example B6, 2,2-Dimethyl-4aminocyclopent-1-yl 1-Thio-β-D-galactopyranoside], the inhibition at 1000 µg/mL was at least 20%.

For the compound `CNC1CC(S[C@@H]2O[C@H](CO)[C@H](O)[C@H](O)[C@H]2O)C(C)(C)C1` (stereo partly drawn) [Example B6A, 2,2-Dimethyl-4-(methylamino)-cyclopent-1-yl 1-Thio-β-D-galactopyranoside], the inhibition at 1000 µg/mL is at least 20%.

With `CC1CCC(NC2CC(S[C@@H]3O[C@H](CO)[C@H](O)[C@H](O)[C@H]3O)C(C)(C)C2)CC1` (stereo partly drawn) [Example B6L, 2,2-Dimethyl-4-(4-methylcyclohex-1-ylamino)-cyclopent-1-yl 1-Thio-β-D-galactopyranoside], the inhibition at 1000 µg/mL is at least 20%.

Turning to `CC1CCC(NC2CC(S[C@@H]3O[C@H](CO)[C@H](O)[C@H](O)[C@H]3O)C(C)(C)C2)C1` (stereo partly drawn) [Example B6Q, 2,2-Dimethyl-4-(3-methylcyclopent-1-ylamino)-cyclopent-1-yl 1-Thio-β-D-galactopyranoside], the inhibition at 1000 µg/mL was at least 20%.

Turning to `CC1CCCC(NC2CC(S[C@@H]3O[C@H](CO)[C@H](O)[C@H](O)[C@H]3O)C(C)(C)C2)C1` (stereo partly drawn) [Example B6T, 2,2-Dimethyl-4-(3-methylcyclohex-1-ylamino)-cyclopent-1-yl 1-Thio-β-D-galactopyranoside], the inhibition at 1000 µg/mL is at least 20%.

For the compound `CC(N)CC(C)S[C@@H]1O[C@H](CO)[C@H](O)[C@H](O)[C@H]1O` (stereo partly drawn) [Example B8, 4-Aminopent-2-yl 1-Thio-β-D-galactopyranoside], the inhibition at 1000 µg/mL is at least 20%.

On to `CC(=O)NC1CCCC1S[C@@H]1O[C@H](CO)[C@H](O)[C@H](O)[C@H]1O` (stereo partly drawn) [Example C1, 2-Acetamidocyclopent-1-yl 1-Thio-β-D-galactopyranoside], for which the inhibition at 1000 µg/mL is below 20%.

Regarding `CC(=O)NC(C)CC(S[C@@H]1O[C@H](CO)[C@H](O)[C@H](O)[C@H]1O)c1ccccc1` (stereo partly drawn) [Example C3, 3-Acetamido-1-phenylbut-1-yl 1-Thio-β-D-galactopyranoside], the inhibition at 1000 µg/mL is below 20%.

With `CC(=O)NC(C)CC(C)S[C@@H]1O[C@H](CO)[C@H](O)[C@H](O)[C@H]1O` (stereo partly drawn) [Example C8, 4-Acetamidopent-2-yl 1-Thio-β-D-galactopyranoside], the inhibition at 1000 µg/mL was below 20%.

`O=C(O)c1ccccc1C(=O)NC1CCCC1S[C@@H]1O[C@H](CO)[C@H](O)[C@H](O)[C@H]1O` (stereo partly drawn) [Example D1, 2-(2-Carboxybenzamido)cyclopent-1-yl 1-Thio-β-D-galactopyranoside]: the inhibition at 1000 µg/mL is at least 20%.

In the case of `CC(CC(S[C@@H]1O[C@H](CO)[C@H](O)[C@H](O)[C@H]1O)c1ccccc1)NC(=O)c1ccccc1C(=O)O` (stereo partly drawn) [Example D3, 3-(2-Carboxybenzamido)-1-phenylbut-1-yl 1-Thio-β-D-galactopyranoside], the inhibition at 1000 µg/mL was below 20%.

For the compound `CC(CC(C)S[C@@H]1O[C@H](CO)[C@H](O)[C@H](O)[C@H]1O)NC(=O)c1ccccc1C(=O)O` (some centres unmarked) [Example D8], the inhibition at 1000 µg/mL was at least 20%.

In the case of `O=C(O)CNC1CCCCC(S[C@@H]2O[C@H](CO)[C@H](O)[C@H](O)[C@H]2O)C1` (stereo partly drawn) [Example E5, Nα-[3-(1-Thio-β-D-galactopyranosyl)cyclohept-1-yl]glycine], the inhibition at 1000 µg/mL is below 20%.

On to `CC(CC(C)S[C@@H]1O[C@H](CO)[C@H](O)[C@H](O)[C@H]1O)NCC(=O)O` (stereo partly drawn) [Example E8, Nα-[4-(1-Thio-β-D-galactopyranosyl)pent-2-yl]glycine], for which the inhibition at 1000 µg/mL is below 20%.

Take `CC1(C)CCC(NCC(=O)O)CC1S[C@@H]1O[C@H](CO)[C@H](O)[C@H](O)[C@H]1O` (stereo partly drawn) [Example E9, Nα-[4,4-Dimethyl-3-(1-thio-β-D-galactopyranosyl)-cyclohex-1-yl]glycine]: the inhibition at 1000 µg/mL is below 20%.

Take `CC1(C)CC(NCCC(=O)O)CC1S[C@@H]1O[C@H](CO)[C@H](O)[C@H](O)[C@H]1O` (stereo partly drawn) [Example F6, Nβ-[4,4-Dimethyl-3-(1-thio-β-D-galactopyranosyl)-cyclopent-1-yl]-βalanine]: the inhibition at 1000 µg/mL was below 20%.

Consider `CC1(C)CCC(NCCC(=O)O)CC1S[C@@H]1O[C@H](CO)[C@H](O)[C@H](O)[C@H]1O` (stereo partly drawn) [Example F9, Nβ-[4,4Dimethyl-3-(1-thio-β-D-galactopyranosyl)-cyclohex-1-yl]-β-alanime], for which the inhibition at 1000 µg/mL is below 20%.

Take `CC(C)C[C@H](NC(C)CC(S[C@@H]1O[C@H](CO)[C@H](O)[C@H](O)[C@H]1O)c1ccccc1)C(=O)O` (stereo partly drawn) [Example G3, Nα-[4-Phenyl-4-(1-thio-β-galactopyranosyl)but-2-yl]-L-leucine]: the inhibition at 1000 µg/mL is below 20%.

For the compound `CC(C)C[C@H](NC1CCC(S[C@@H]2O[C@H](CO)[C@H](O)[C@H](O)[C@H]2O)C1)C(=O)O` (stereo partly drawn) [Example G7, Nα-[3-(1-Thio-β-D-galactopyranosyl)cyclopent-1-yl]-L-leucine], the inhibition at 1000 µg/mL is below 20%.

For the compound `CC(C)C[C@H](NC(C)CC(C)S[C@@H]1O[C@H](CO)[C@H](O)[C@H](O)[C@H]1O)C(=O)O` (stereo partly drawn) [Example G8, Nα-[4-(1-Thio-β-D-galactopyranosyl)pent-2-yl]-L-leucine], the inhibition at 1000 µg/mL is below 20%.

Consider `CC(C)C[C@H](NC1CCC(C)(C)C(S[C@@H]2O[C@H](CO)[C@H](O)[C@H](O)[C@H]2O)C1)C(=O)O` (stereo partly drawn) [Example G9, Nα-[4,4-Dimethyl-3-(1-thio-β-D-galactopyranosyl)-cyclohex-1-yl]-L-leucine], for which the inhibition at 1000 µg/mL was below 20%.

Take `CC(C)C[C@H](NC1CCCC(S[C@@H]2O[C@H](CO)[C@H](O)[C@H](O)[C@H]2O)C1)C(=O)O` (stereo partly drawn) [Example G10, Nα-[3-(1-Thio-β-D-galactopyranosyl)cyclohex-1-yl]-L-leucine]: the inhibition at 1000 µg/mL was below 20%.

As to `CC(CC(S[C@@H]1O[C@H](CO)[C@H](O)[C@H](O)[C@H]1O)c1ccccc1)N[C@@H](Cc1c[nH]c2ccccc12)C(=O)O` (stereo partly drawn) [Example I3, Nα-[4-Phenyl-4-(1-thio-β-D-galactopyranosyl)but-2-yl]-L-tryptophan], the inhibition at 1000 µg/mL is at least 20%.

On to `CC(CC(C)S[C@@H]1O[C@H](CO)[C@H](O)[C@H](O)[C@H]1O)N[C@@H](Cc1c[nH]c2ccccc12)C(=O)O` (stereo partly drawn) [Example I8, Nα-[4-(1-Thio-β-D-galactopyranosyl)pent-2-yl]-L-tryptophan], for which the inhibition at 1000 µg/mL was below 20%.

In the case of `CC1(C)CCC(N[C@@H](Cc2c[nH]c3ccccc23)C(=O)O)CC1S[C@@H]1O[C@H](CO)[C@H](O)[C@H](O)[C@H]1O` (stereo partly drawn) [Example I9, Nα-[4,4-Dimethyl-3-(1-thio-β-D-galactopyranosyl)-cyclohex-1-yl]-L-tryptophan], the inhibition at 1000 µg/mL was below 20%.

Regarding `O=C(O)[C@H](Cc1c[nH]c2ccccc12)NC1CCCC(S[C@@H]2O[C@H](CO)[C@H](O)[C@H](O)[C@H]2O)C1` (stereo partly drawn) [Example I10, Nα-[3-(1-Thio-β-D-galactopyranosyl)cyclohex-1-yl]-L-tryptophan], the inhibition at 1000 µg/mL is below 20%.

Consider `N=C(N)NCCC[C@H](NC1CCCC1S[C@@H]1O[C@H](CO)[C@H](O)[C@H](O)[C@H]1O)C(=O)O` (stereo partly drawn) [Example J1, Nα-[2-(1-Thio-β-D-galactopyranosyl)cyclopent-1-yl]-L-arginine], for which the inhibition at 1000 µg/mL is at least 20%.

For the compound `CC(CC(S[C@@H]1O[C@H](CO)[C@H](O)[C@H](O)[C@H]1O)c1ccccc1)N[C@@H](CCCNC(=N)N)C(=O)O` (stereo partly drawn) [Example J3, Nα-[4-Phenyl-4-(1-Thio-β-D-galactopyranosyl)but-2-yl]-L-arginine], the inhibition at 1000 µg/mL was at least 20%.

Turning to `N=C(N)NCCC[C@H](NC1CCCCC(S[C@@H]2O[C@H](CO)[C@H](O)[C@H](O)[C@H]2O)C1)C(=O)O` (stereo partly drawn) [Example J5, Nα-[3-(1-Thio-β-D-galactopyranosyl)cyclohept-1-yl]-L-arginine], the inhibition at 1000 µg/mL is below 20%.

Consider `CC1(C)CC(N[C@@H](CCCNC(=N)N)C(=O)O)CC1S[C@@H]1O[C@H](CO)[C@H](O)[C@H](O)[C@H]1O` (stereo partly drawn) [Example J6, Nα-[4,4-Dimethyl-3-(1-thio-β-D-galactopyranosyl)-cyclopent-1-yl]-L-arginine], for which the inhibition at 1000 µg/mL was below 20%.

As to `CC(CC(C)S[C@@H]1O[C@H](CO)[C@H](O)[C@H](O)[C@H]1O)N[C@@H](CCCNC(=N)N)C(=O)O` (stereo partly drawn) [Example J8, Nα-[4-(1-Thio-β-D-galactopyranosyl)pent-2-yl]-L-arginine], the inhibition at 1000 µg/mL is below 20%.

Regarding `N=C(N)NCCC[C@H](NC1CCCC(S[C@@H]2O[C@H](CO)[C@H](O)[C@H](O)[C@H]2O)C1)C(=O)O` (stereo partly drawn) [Example J10, Nα-[3-(1-Thio-β-D-galactopyranosyl)cyclohex-1-yl]-L-arginine], the inhibition at 1000 µg/mL is below 20%.
